Earlier results as cited in patent US20080171790A1, “Fatty acids-systemic lipid solubilizers conjugates” (priority 2007, published 2008).

Conditions: after oral administration

C[C@H](CCC(=O)O)[C@H]1CC[C@H]2[C@@H]3C[C@H](O)[C@@H]4C[C@H](O)CC[C@]4(C)[C@H]3CC[C@]12C [hyodeoxycholic acid, Hyodeoxycholic acid]
proportion of the administered substance excreted in the urine as a glucuronide: up to 84%
